# Reference: ChEMBL document CHEMBL5678818, “Discovery of potent SOS1 inhibitors that block RAS activation via disruption of the RAS-SOS1 interaction” (Proc Natl Acad Sci U S A, 2019)
# What was measured:
# [1] = target: T1, Serine/threonine-protein kinase Nek1 (Homo sapiens) (UniProt Q96PY6); experiment: Inhibition of NEK1 (unknown origin) assessed as residual activity at 1000 nM by KINOMEscan analysis relative to control
# T1 sequence (whole entry): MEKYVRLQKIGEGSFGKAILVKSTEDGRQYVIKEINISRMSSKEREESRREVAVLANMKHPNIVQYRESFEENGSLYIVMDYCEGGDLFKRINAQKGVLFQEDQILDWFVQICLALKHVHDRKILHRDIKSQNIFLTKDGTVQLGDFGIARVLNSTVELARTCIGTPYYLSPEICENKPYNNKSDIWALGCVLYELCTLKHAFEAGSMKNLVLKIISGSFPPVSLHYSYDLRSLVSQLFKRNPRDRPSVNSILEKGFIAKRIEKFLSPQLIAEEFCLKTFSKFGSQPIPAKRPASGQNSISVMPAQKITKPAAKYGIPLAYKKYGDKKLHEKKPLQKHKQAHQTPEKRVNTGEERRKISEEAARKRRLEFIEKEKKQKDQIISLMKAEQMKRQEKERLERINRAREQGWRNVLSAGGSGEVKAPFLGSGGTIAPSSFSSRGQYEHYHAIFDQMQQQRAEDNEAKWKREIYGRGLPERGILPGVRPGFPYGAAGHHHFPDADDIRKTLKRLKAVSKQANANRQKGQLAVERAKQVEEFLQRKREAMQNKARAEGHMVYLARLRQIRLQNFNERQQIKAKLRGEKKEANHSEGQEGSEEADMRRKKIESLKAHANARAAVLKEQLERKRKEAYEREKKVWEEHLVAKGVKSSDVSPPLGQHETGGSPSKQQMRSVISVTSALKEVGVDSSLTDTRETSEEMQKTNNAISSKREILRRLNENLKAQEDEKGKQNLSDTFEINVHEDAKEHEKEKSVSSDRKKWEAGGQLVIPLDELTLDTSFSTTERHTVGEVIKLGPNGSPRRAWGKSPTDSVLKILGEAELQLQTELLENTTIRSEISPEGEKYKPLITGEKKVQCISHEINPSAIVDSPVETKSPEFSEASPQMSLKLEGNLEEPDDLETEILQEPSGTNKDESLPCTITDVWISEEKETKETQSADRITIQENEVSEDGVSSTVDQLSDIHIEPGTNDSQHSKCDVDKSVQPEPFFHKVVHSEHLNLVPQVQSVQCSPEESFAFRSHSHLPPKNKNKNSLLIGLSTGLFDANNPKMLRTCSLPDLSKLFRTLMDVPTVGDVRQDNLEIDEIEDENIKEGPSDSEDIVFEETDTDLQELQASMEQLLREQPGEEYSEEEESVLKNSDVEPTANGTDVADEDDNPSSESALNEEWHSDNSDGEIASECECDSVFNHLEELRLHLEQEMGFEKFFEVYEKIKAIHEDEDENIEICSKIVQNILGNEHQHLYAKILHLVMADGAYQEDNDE
# [2] = target: T2, Serine/threonine-protein kinase Chk1 (Homo sapiens) (UniProt O14757); experiment: Inhibition of CHEK1 (unknown origin) assessed as residual activity at 1000 nM by KINOMEscan analysis relative to control
# T2 sequence (whole entry): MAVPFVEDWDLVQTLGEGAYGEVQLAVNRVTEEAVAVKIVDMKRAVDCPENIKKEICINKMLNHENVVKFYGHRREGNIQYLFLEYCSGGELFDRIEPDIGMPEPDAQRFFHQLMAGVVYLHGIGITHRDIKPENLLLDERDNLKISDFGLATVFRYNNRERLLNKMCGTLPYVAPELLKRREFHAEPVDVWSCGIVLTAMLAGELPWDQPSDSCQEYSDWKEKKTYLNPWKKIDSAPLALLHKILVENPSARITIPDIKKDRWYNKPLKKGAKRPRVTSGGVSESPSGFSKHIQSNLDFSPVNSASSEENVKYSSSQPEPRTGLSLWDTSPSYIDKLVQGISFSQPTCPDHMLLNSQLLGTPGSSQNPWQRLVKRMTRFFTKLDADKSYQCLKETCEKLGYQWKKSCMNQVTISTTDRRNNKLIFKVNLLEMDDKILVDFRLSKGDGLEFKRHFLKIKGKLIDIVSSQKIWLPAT
# [3] = target: Serine/threonine-protein kinase 26 (Homo sapiens) (UniProt Q9P289); experiment: Inhibition of MST4 (unknown origin) assessed as residual activity at 1000 nM by KINOMEscan analysis relative to control
# [4] = tested on: Tyrosine-protein kinase ABL1 (Homo sapiens), P00519 [E255K]; experiment: Inhibition of phosphorylated ABL1 E255K mutant (unknown origin) assessed as residual activity at 1000 nM by KINOMEscan analysis relative to control
# [5] = target: T3, Serine/threonine-protein kinase DCLK2 (Homo sapiens) (UniProt Q8N568); experiment: Inhibition of DCAMKL2 (unknown origin) assessed as residual activity at 1000 nM by KINOMEscan analysis relative to control
# T3 sequence (whole entry): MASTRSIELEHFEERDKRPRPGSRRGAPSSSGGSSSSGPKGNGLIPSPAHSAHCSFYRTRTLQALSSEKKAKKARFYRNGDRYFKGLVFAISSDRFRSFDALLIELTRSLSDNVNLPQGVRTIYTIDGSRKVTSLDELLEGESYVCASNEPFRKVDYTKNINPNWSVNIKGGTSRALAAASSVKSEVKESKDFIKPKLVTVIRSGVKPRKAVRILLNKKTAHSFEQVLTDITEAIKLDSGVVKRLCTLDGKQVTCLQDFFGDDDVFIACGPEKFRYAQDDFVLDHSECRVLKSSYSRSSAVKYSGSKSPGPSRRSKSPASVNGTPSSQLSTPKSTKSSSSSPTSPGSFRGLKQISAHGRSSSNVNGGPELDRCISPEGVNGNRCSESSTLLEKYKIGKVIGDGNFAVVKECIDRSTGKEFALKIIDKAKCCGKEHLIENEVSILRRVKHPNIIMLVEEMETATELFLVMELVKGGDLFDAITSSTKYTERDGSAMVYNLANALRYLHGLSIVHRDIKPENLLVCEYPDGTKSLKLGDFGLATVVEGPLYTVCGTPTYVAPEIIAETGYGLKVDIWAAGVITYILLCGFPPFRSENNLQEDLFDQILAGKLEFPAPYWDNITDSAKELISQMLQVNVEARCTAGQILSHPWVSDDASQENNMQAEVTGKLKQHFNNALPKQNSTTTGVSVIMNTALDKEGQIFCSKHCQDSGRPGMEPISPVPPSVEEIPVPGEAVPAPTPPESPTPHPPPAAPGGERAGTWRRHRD
# [6] = target: Serine/threonine-protein kinase 25 (Homo sapiens) (UniProt O00506); experiment: Inhibition of YSK1 (unknown origin) assessed as residual activity at 1000 nM by KINOMEscan analysis relative to control
# [7] = target: Citron Rho-interacting kinase (Homo sapiens) (UniProt O14578); experiment: Inhibition of CIT (unknown origin) assessed as residual activity at 1000 nM by KINOMEscan analysis relative to control
# [8] = target: Serine/threonine-protein kinase mTOR (Homo sapiens) (UniProt P42345); experiment: Inhibition of MTOR (unknown origin) assessed as residual activity at 1000 nM by KINOMEscan analysis relative to control
# Sequence of Citron Rho-interacting kinase (Homo sapiens) (O14578 whole entry): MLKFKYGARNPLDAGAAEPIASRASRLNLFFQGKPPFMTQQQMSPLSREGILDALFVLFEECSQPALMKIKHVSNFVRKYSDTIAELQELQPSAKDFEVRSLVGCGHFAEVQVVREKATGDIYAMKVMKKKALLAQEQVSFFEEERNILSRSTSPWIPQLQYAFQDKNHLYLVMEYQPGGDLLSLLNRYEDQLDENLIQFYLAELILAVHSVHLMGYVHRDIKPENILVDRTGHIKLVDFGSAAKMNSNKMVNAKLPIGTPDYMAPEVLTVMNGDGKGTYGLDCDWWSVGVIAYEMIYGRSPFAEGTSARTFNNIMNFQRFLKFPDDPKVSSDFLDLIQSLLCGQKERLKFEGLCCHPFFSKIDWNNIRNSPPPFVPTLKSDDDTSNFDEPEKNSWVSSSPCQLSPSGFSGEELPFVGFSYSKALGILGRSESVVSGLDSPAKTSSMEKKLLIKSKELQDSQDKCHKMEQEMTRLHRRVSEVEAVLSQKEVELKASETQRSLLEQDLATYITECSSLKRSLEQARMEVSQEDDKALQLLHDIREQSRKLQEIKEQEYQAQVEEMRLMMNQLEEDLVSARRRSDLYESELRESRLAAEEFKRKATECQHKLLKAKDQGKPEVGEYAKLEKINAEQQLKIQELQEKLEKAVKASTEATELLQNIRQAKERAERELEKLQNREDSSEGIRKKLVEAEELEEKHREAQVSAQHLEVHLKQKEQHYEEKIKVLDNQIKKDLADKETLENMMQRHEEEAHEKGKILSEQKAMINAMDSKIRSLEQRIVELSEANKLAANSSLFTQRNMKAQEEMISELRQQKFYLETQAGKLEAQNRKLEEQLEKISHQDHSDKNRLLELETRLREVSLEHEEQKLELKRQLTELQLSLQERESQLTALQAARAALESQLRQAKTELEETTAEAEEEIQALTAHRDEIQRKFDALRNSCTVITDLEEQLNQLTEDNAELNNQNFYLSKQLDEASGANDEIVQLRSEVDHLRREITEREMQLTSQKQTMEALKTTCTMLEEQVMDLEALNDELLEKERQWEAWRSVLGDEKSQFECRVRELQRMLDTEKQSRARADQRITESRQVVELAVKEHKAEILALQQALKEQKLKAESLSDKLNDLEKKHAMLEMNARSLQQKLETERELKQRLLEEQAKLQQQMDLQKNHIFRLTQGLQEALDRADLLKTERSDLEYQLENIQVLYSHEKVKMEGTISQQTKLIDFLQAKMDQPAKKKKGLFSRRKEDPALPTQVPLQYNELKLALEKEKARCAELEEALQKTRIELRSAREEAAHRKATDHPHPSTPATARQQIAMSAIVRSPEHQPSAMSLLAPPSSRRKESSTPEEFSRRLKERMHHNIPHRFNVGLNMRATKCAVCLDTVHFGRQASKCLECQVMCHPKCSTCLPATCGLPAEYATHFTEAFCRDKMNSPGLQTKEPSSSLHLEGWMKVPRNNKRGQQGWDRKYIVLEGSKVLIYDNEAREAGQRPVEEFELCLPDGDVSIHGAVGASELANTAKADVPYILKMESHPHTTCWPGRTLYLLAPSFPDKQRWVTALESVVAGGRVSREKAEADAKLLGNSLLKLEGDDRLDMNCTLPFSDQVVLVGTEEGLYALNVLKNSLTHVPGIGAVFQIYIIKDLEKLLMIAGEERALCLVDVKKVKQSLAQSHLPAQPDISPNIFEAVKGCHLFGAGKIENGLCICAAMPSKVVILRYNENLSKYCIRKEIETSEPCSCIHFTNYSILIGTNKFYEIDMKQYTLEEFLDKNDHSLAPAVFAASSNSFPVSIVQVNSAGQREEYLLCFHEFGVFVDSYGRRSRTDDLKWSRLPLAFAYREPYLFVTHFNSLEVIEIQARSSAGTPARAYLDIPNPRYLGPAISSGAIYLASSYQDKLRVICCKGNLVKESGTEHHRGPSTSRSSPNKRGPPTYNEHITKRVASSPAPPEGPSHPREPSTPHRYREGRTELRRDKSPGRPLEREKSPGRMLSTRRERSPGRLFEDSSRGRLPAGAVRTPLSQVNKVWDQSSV
# Sequence of Serine/threonine-protein kinase 26 (Homo sapiens) (Q9P289 2-416 limits assumed): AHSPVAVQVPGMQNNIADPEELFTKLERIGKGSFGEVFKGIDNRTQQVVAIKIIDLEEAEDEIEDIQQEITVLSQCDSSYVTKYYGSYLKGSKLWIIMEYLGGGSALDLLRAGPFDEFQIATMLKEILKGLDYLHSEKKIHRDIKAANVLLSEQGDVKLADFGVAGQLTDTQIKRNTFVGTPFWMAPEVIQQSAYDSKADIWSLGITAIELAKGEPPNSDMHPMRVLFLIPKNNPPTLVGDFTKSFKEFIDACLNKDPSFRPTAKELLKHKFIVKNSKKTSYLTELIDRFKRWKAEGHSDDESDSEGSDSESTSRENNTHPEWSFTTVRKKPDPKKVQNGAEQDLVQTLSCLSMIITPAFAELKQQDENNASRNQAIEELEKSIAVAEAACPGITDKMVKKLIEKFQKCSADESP
# Sequence of Serine/threonine-protein kinase 25 (Homo sapiens) (O00506 whole entry, looked up): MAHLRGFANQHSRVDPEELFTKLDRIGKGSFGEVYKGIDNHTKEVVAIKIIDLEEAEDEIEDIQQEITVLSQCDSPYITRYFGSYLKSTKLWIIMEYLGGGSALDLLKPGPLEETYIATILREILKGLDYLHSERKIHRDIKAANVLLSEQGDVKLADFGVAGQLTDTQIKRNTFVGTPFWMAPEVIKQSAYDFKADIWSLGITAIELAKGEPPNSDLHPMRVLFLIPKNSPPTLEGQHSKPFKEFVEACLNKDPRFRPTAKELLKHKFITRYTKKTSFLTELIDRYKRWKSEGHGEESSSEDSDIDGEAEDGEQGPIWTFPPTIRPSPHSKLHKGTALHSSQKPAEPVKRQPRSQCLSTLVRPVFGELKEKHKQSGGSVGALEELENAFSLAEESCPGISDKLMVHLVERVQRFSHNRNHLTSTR
# Sequence of Tyrosine-protein kinase ABL1 (Homo sapiens), P00519 [E255K] (P00519 whole entry E255K): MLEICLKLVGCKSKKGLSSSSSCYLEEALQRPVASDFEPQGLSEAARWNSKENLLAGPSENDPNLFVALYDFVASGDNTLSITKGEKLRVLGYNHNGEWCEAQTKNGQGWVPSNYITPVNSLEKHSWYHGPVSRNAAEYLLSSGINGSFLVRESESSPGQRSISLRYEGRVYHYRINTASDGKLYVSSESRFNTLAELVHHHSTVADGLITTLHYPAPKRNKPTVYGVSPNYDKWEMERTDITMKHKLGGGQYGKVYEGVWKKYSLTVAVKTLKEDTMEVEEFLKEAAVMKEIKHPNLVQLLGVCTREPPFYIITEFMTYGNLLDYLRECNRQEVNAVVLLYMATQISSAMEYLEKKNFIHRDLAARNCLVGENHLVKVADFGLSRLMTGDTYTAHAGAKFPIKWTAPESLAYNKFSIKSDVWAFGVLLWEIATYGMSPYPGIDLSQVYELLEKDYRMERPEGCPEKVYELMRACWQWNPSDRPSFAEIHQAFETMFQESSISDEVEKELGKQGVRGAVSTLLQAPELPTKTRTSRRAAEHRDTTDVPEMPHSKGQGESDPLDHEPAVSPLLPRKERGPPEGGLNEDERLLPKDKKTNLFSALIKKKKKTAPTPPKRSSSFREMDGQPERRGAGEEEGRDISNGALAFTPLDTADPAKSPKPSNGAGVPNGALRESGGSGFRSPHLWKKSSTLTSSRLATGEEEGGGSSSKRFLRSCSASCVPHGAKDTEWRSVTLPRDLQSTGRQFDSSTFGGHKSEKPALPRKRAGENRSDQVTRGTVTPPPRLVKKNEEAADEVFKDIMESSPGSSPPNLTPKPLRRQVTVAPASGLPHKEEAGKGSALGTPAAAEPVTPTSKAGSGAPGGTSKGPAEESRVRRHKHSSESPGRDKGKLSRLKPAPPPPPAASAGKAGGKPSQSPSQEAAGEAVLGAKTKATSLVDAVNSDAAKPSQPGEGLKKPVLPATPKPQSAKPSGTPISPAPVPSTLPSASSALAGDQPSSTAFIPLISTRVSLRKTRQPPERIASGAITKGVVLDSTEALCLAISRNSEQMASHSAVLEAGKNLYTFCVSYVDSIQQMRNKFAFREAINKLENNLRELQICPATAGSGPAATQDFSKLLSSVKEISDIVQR
Structure (SMILES),Activity [1] [%],Activity [2] [%],Activity [3] [%],Activity [4] [%],Activity [5] [%],Activity [6] [%],Activity [7] [%],Activity [8] [%]
COc1cc2nc(C)nc(N[C@H](C)c3cccc(-c4cn[nH]c4)c3)c2cc1OC,100,98,74,65,98,99,93,62
COc1cc2ncnc(N[C@H](C)c3cccc4ccccc34)c2cc1OC,96,100,98,89,100,100,85,95
